Where two headings read alike, the source gives them in different places. {Biotin} = biotin label attached at strand end
Tests used:
MCF-7 cells [1] = experiment: Cytotoxicity in MCF-7 cells (CellTiter 96 AQueous One Solution), Embodiment 33; assay type: cell-based, human; settings: MCF-7, 96 hours
Method: Cytotoxicity of DNAh-Biotin-EGFRapt-Cy5-Mit Nanoparticles in MCF-7 Cells
(§1) 1) Harvesting cells in a logarithmic growth phase, taking a small amount and staining with trypan blue for counting to ensure that the cell viability reaches more than 98%;
(§2) 2) adjusting the cell density to 2.22×10^4/mL with a growth medium;
(§3) 3) planting 90 μL/well of cell suspension into the 96-well plate, herein the number of cells per well in the plate is 2000;
(§4) 4) placing the planted cell plate in the incubator at 37 DEG C. and incubating overnight;
(§5) 5) performing 3.16-fold gradient dilution on the compound at 9 concentration points;
6) taking out the cell culture plate, and adding 10 μL/well of 10× concentration drug working solution to the corresponding wells of the cell culture plate, herein three replicate holes are made for each concentration, and the final drug action concentration is shown in Table 144 below;
7) placing the cell culture plate in the incubator and continuously incubating for 96 hours […]
(§6) 11) using a microplate reader to read a OD490 value of each well in the cell plate; and […]
(§7) GraphPad Prism 5.0 software is used to process data graphically. […] A calculation formula of the survival rate is as follows, the IC50 may be automatically calculated in GraphPad Prism 5.0. […]

MV4-11 cells [2] = experiment: Cytotoxicity in MV4-11 cells (CellTiter 96 AQueous One Solution), Embodiment 25; assay type: cell-based; settings: MV4-11, 96 hours
Method: as §1
(§8) 2) adjusting the cell density to 1.11×10^5/mL with a growth medium;
(§9) 3) planting 90 μL/well of cell suspension into the 96-well plate, herein the number of cells per well in the plate is 10000;
as §4, §5
6) taking out the cell culture plate, and adding 10 μL/well of 10× concentration drug working solution to the corresponding wells of the cell culture plate, herein three replicate holes are made for each concentration, and the final drug action concentration is shown in Table 124 below;
(§10) 7) placing the cell culture plate in the incubator and continuously incubating for 96 hours; […]
as §6, §7

HCT116 cells = experiment: Cytotoxicity in HCT116 cells (CellTiter-Glo), Embodiment 29; assay type: cell-based
Method: Cytotoxicity Research of RNAh-Bio-670-Docetaxel Nanoparticles in HCT116 Cells
1) Cell Culturing and Plating
HCT116 cells are cultured at 37 DEG C. and 5% CO2 in the DMEM basal medium in which 10% FBS and 1% PS are respectively added. The cell density used in the experiment is above 80%. The cells are collected, and centrifuged at 1000 rpm for 4 minutes, the medium is resuspended, the cell concentration is adjusted, and it is added to the 96-well plate in a volume of 5000 cells per 90 μL, and each group has 4 replicate wells.
2) Gradient drug concentration preparation and administration
After 24 hours, the compound solution is transferred to each well, 200 nM of each sample per well, and 4 replication wells.
Medium (untreated) control: only cells without compound treatment
Blank control: without cells, used for instrument zero calibration
3) Cell Culture after Administration
4) Cells Treated by Detection Kit
The well plate is brought to a room temperature in advance and stands for 30 minutes. 100 μL of a CellTiter-Glo® reagent is added to each well of the well plate and mixed for 2 minutes on a shaker to promote cell lysis. The Perkin Elmer Envision 2104 Multilabel Reader is used to read values and the values are recorded. […]
The acquired experiment data is analyzed and processed by using excel software, and GraphPad Prism 5 software is used for curve fitting analysis.

MCF-7 cells [3] = experiment: Cytotoxicity in MCF-7 cells (CellTiter 96 AQueous One Solution), Embodiment 30; assay type: cell-based; settings: Homo sapiens, MCF7, MCF-7, 96 hours
Method: as §1, §2, §3, §4, §5
(§11) 6) taking out the cell culture plate, and adding 10 μL/well of 10× concentration drug working solution to the corresponding wells of the cell culture plate, herein three replicate holes are made for each concentration, and the final drug action concentration is shown in Table 134 below;
as §10, §6, §7

SKOV3 cells = experiment: Cytotoxicity in SKOV3 cells (CellTiter 96 AQueous One Solution), Embodiment 30; assay type: cell-based; settings: Homo sapiens, SK-OV-3, SKOV3, 96 hours
Method: as §1, §2, §3, §4, §5, §11, §10, §6, §7

MV4-11 cells [4] = experiment: Cytotoxicity in MV4-11 cells (CellTiter 96 AQueous One Solution), Embodiment 37; assay type: cell-based
Method: 9) adding 20 μL/well of the CellTiter 96® AQueous One Solution reagent to the cell culture plate; […]

MCF-7 cells [5] = experiment: Cytotoxicity in MCF-7 cells (CellTiter 96 AQueous One Solution), Embodiment 37; assay type: cell-based, human
Method: Cytotoxicity of DNAh-Biotin-EGFRapt-Cy5-Idarubicin Nanoparticles in MCF-7 and MV4-11 Cells
as §1, §2, §3, §4, §5
6) taking out the cell culture plate, and adding 10 μL/well of 10× concentration drug working solution to the corresponding wells of the cell culture plate, herein three replicate holes are made for each concentration, and the final drug action concentration is shown in Table 154 below;
as §10, §6, §7

RPMI 8226 cells = experiment: Cytotoxicity in RPMI 8226 cells (CellTiter 96 AQueous One Solution), Embodiment 21; assay type: cell-based; settings: Homo sapiens, RPMI 8226, 96 hours
Method: as §1, §8, §9, §4, §5
7) placing the cell culture plate in the incubator and continuously incubating for 96 hours;
8) placing the CellTiter 96® AQueous One Solution reagent at the room temperature and thawing for 90 minutes or thawing in a water bath at 37 DEG C., and placing at the room temperature and equilibrating for 30 minutes;
9) adding 20 μL/well of the CellTiter 96® AQueous One Solution reagent to the cell culture plate;
10) placing the cell culture plate in the incubator at 37 DEG C. and continuously incubating for 3 hours;
11) using a microplate reader to read a OD490 value of each well in the cell plate; and
12) data processing and analysis.
as §7

[6] = TM value detection by solubility curve method (SYBR Green I); assay type: physicochemical; settings: extension fragment deformation+core short-sequence RNA nanoparticles; temperature at ½ RFUmax in 20 to 90 DEG C. taken as Tm
Method: A solubility curve method is used to detect TM values of the 7 groups of the extension fragment deformation+core short-sequence RNA nanoparticles, and the samples are consistent with the potential samples.
(1) After the sample is diluted with ultrapure water, 5 μg of the diluted sample is mixed with 2 μL of SYBR Green I dye (diluted by 1:200), a final volume is 20 μL, and the dilution concentration is as follows:
(2) It is incubated for 30 min in the dark at a room temperature; and
(3) On-machine detection is performed, a program is set to start at 20 DEG C., the temperature rises per second from 0.1 DEG C. to 95 DEG C., and reading is performed every 5 s.
Due to the particularity of the RNA samples, a temperature corresponding to ½ RFUmax in a range of 20 to 90 DEG C. is used as a sample Tm value in this test.
A solubility curve method is used to detect TM values of the 7 groups of the extension fragment deformation+core short-sequence DNA nanoparticles, and the samples are consistent with the potential samples.

[7] = compared with DNAh targeted fluorescent carrier

Molecule O=C1c2c(O)ccc(O)c2C(=O)c2c(NCCNCCO)ccc(NCCNCCO)c21 [Mit (mitoxantrone)] has an IC50 (MCF-7 cells [1]) of 538 nM.

With Nc1ccn([C@@H]2O[C@H](CO)[C@@H](O)[C@@H]2O)c(=O)n1 [cytarabine] the IC50 (MV4-11 cells [2]; Homo sapiens) was 1250 nM and the “toxicity to the MV4-11 cells (in words)” value (MV4-11 cells [2]; [7]) was “toxic”.

Work on CC(=O)O[C@@]12CO[C@@H]1C[C@H](O)[C@@]1(C)C(=O)[C@H](O)C3=C(C)[C@@H](OC(=O)[C@H](O)[C@@H](NC(=O)OC(C)(C)C)c4ccccc4)C[C@@](O)([C@@H](OC(=O)c4ccccc4)[C@H]21)C3(C)C [docetaxel] yielded a cell survival rate (HCT116 cells; HCT116, treatment time 72 h, drug concentration 200 nM) of 10.68%, an inhibition at 0.2 µM (HCT116 cells; Homo sapiens, HCT-116, HCT116, drug concentration 200 nM, 72 hours, read-out: cell inhibition rates) of 50.5% and an IC50 (MCF-7 cells [3]; read-out: IC50) of under 1 nM. The IC50 (MCF-7 cells [3]; read-out: IC50 acting on the MCF-7 cells) was under 1 nM, the IC50 (SKOV3 cells; read-out: IC50) was under 1 nM and the IC50 (SKOV3 cells; read-out: IC50 acting on the SKOV3 cells) was under 1 nM.

For CC(=O)[C@]1(O)Cc2c(O)c3c(c(O)c2[C@@H](O[C@H]2C[C@H](N)[C@H](O)[C@H](C)O2)C1)C(=O)c1ccccc1C3=O [idarubicin], the IC50 (MV4-11 cells [4]; Homo sapiens, MV4-11 cell line, 96 hours incubation, CellTiter 96 AQueous One Solution, OD490) was under 1 nM, the “toxicity to the MV4-11 cells (in words)” value (MV4-11 cells [4]; MV4-11, 96 hours, compared with DNAh targeted fluorescent carrier) was “toxic” and the IC50 (MCF-7 cells [5]; Homo sapiens, MCF7, MCF-7 cell line, 96 hours incubation, CellTiter 96 AQueous One Solution, OD490) was 72.5 nM. The “toxicity to the MCF-7 cells (in words)” value (MCF-7 cells [5]; MCF-7, 96 hours, compared with DNAh targeted fluorescent carrier) was “toxic”.

Work on Nc1cccc2c1CN(C1CCC(=O)NC1=O)C2=O (stereo not shown) [lenalidomide, 3-(7-amino-3-oxo-1H-isoindol-2-yl) piperidine-2,6-dione] yielded an IC50 (RPMI 8226 cells; read-out: IC50) of 72300 nM and an IC50 (RPMI 8226 cells; read-out: IC50 acting on the RPMI 8226 cells) of 72300 nM.

For O=C1c2c(O)ccc(O)c2C(=O)c2c(NCCNCCO)ccc(NCCNCCO)c21 [mitoxantrone], the “toxicity to the MCF-7 cells (in words)” value (MCF-7 cells [1]; [7]) was “toxic”.

B1: R-21: extension fragment deformation+core short-sequence RNA nanoparticles, strands SEQ ID NO: 138-140, a-strand 3′-biotin, 2′F (nucleic acid)
chain 1: GCGGCGAGCGGCGACGAGCGUUGCGGCCGGAGGCCGG
chain 2: CCGGCCUCCGGCCGCUUCGGCGCCAGCCGCC
chain 3: GGCGGCAGGCGCCCAUAGCCGUCGCCGCUCGCCGC
modifications: RNA nanoparticle strands, 2'-fluoro modified, a-strand 3'-biotin, positions not given here
B1 gave a TM value [6] of 65.0 °C.

B2: R-15: extension fragment deformation+core short-sequence RNA nanoparticles, strands SEQ ID NO: 120-122, a-strand 3′-biotin, 2′F (nucleic acid)
chain 1: GCGGCGAGCGGCGAGGAGCGUUGGGGCCGGAGGCCGG
chain 2: CCGGCCUCCGGCCCCUUCGGGGCCAGCCGCC
chain 3: GGCGGCAGGCCCCCAUAGCCCUCGCCGCUCGCCGC
modifications: chain 1: 3' {Biotin}, sugars by position and backbone not given here; chain 2: sugars by position and backbone not given here; chain 3: sugars by position and backbone not given here; RNA nanoparticle, 2'-fluoro modified
In the case of B2, the TM value [6] is reported as 57.5 °C.

B3: R-16: extension fragment deformation+core short-sequence RNA nanoparticles, strands SEQ ID NO: 123-125, a-strand 3′-biotin, 2′F (nucleic acid)
chain 1: GCGGCGAGCGGCGAGCAGCGUUCGGGCCGGAGGCCGG
chain 2: CCGGCCUCCGGCCCGUUCGCCGCCAGCCGCC
chain 3: GGCGGCAGGCGGCCAUAGCGCUCGCCGCUCGCCGC
modifications: chain 1: 3' {Biotin}, sugars by position and backbone not given here; chain 2: sugars by position and backbone not given here; chain 3: sugars by position and backbone not given here; RNA nanoparticle, 2'-fluoro modified
B3 gave a TM value [6] of 53.8 °C.

B4: R-17: extension fragment deformation+core short-sequence RNA nanoparticles, strands SEQ ID NO: 126-128, a-strand 3′-biotin, 2′F (nucleic acid)
chain 1: GCGGCGAGCGGCGAGGAGCGUUGGGGCCGGAGGCCGG
chain 2: CCGGCCUCCGGCCCCUUCGCCGCCAGCCGCC
chain 3: GGCGGCAGGCGGCCAUAGCCCUCGCCGCUCGCCGC
modifications: chain 1: 3' {Biotin}, sugars by position and backbone not given here; chain 2: sugars by position and backbone not given here; chain 3: sugars by position and backbone not given here; RNA nanoparticle, 2'-fluoro modified
B4 showed a TM value [6] of 55.2 °C.

B5: R-19: extension fragment deformation+core short-sequence RNA nanoparticles, strands SEQ ID NO: 132-134, a-strand 3′-biotin, 2′F (nucleic acid)
chain 1: GCGGCGAGCGGCGAGCAGCGUUCGGGCCGGAGGCCGG
chain 2: CCGGCCUCCGGCCCGUUCGGCCCCAGCCGCC
chain 3: GGCGGCAGGGGCCCAUAGCGCUCGCCGCUCGCCGC
modifications: RNA nanoparticle strands, 2'-fluoro modified, a-strand 3'-biotin, positions not given here
With B5 the TM value [6] was 54.0 °C.

B6: R-18: extension fragment deformation+core short-sequence RNA nanoparticles, strands SEQ ID NO: 129-131, a-strand 3′-biotin, 2′F (nucleic acid)
chain 1: GCGGCGAGCGGCGAGCAGCGUUCGGGCCGGAGGCCGG
chain 2: CCGGCCUCCGGCCCGUUCGGCGCCAGCCGCC
chain 3: GGCGGCAGGCGCCCAUAGCGCUCGCCGCUCGCCGC
modifications: chain 1: 3' {Biotin}, sugars by position and backbone not given here; chain 2: sugars by position and backbone not given here; chain 3: sugars by position and backbone not given here; RNA nanoparticle, 2'-fluoro modified
With B6 the TM value [6] was 54.5 °C.

From patent publication US20220047617A1, “Nucleic acid nanocarrier drug, preparation method, pharmaceutical composition and use thereof” (BAI YAO ZHI DA (BEIJING) NANOBIO TECHNOLOGY CO., LTD., priority 2018, published 2022)
